Data: the Kinase Knowledgebase extract (Sharma et al. 2016)

target: PIK3CA (human) (UniProt P42336); assay: Assessment of PIK3CA Kinase Activity
Sequence (P42336 whole entry, looked up): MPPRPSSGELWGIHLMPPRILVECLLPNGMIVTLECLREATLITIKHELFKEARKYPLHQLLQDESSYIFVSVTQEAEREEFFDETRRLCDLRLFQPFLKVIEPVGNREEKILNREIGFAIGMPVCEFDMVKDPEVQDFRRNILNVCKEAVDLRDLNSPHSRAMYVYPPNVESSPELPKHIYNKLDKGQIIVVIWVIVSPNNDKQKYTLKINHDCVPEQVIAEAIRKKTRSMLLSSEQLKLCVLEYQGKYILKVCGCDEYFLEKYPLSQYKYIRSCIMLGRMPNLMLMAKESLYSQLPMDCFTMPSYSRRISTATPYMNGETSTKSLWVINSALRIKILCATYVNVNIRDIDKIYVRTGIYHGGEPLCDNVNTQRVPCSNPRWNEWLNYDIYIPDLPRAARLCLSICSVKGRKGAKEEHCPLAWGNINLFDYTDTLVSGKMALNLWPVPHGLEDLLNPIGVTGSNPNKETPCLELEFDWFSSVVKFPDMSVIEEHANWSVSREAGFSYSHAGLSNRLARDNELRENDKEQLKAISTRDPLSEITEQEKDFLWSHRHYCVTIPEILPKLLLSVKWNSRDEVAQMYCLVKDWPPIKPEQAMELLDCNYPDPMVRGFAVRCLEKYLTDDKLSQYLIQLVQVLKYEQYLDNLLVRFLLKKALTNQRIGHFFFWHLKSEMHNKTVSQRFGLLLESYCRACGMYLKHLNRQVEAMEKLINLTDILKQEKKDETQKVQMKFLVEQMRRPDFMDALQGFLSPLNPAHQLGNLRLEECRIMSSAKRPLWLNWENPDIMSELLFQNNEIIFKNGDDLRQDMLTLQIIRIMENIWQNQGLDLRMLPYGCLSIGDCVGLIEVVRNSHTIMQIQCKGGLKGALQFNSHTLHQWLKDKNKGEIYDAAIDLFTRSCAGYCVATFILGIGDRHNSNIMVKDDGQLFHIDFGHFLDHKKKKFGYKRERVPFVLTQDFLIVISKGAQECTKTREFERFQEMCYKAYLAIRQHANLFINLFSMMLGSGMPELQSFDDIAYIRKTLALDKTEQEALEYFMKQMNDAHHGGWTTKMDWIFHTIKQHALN

Ki [µM]	SMILES
0.033	COc1ccc(Nc2ncc(C(O)C(F)(F)F)cc2-c2nc(C)nc(N)n2)cn1 (stereo unspecified)
0.065	COc1ccc(Nc2ncc(Cc3ccccc3)cc2-c2nc(C)nc(N)n2)cn1
0.035	COc1cccc(Nc2cnc(Nc3ccc(OC)nc3)c(-c3nc(C)nc4[nH]cnc34)c2)c1
0.009	COc1ccc(Nc2ncc(CC3CCN(S(C)(=O)=O)CC3)cc2-c2nc(C)nc(N)n2)cn1
0.009	COc1ncc(Nc2ncc([C@@H](C)CO)cc2-c2nc(C)nc(N)n2)cc1F
0.005	COCCOc1cnc(Nc2cnc(Cl)c(NS(C)(=O)=O)c2)c(-c2nc(C)nc(N)n2)c1
0.016	COc1ccc(Nc2ncc(CN3CCC(S(C)(=O)=O)C3)cc2-c2nc(C)nc(N)n2)cn1 (stereo unspecified)
0.014	COc1cnc(Nc2cnc(Cl)c(NS(=O)(=O)N(C)C)c2)c(-c2nc(C)nc(N)n2)c1
0.008	COc1ccc(Nc2ncc(-c3cnn(C)c3)cc2-c2nc(C)nc(N)n2)cn1
0.258	COc1ccc(Nc2ncc(CN3CCN(C)CC3)cc2-c2nc(C)nc(N)n2)cn1
0.247	COc1ccc(Nc2ncc(Br)cc2-c2nc(C)nc(N)n2)cn1
0.007	COc1ncc(Nc2ncc([C@H](C)CO)cc2-c2nc(C)nc(N)n2)cc1F
0.266	COc1ccc(Nc2ncc(CN3CCCC3)cc2-c2nc(C)nc(N)n2)cn1
0.055	COc1cnc(Nc2ccc(OC)nc2)c(-c2nc(C)nc(N)n2)c1
0.242	COc1ccc(Nc2ncc(C)cc2-c2nc(C)nc(N)n2)cn1
0.033	Cc1nc(N)nc(-c2cccnc2Nc2cccc3[nH]ncc23)n1
0.017	COc1ccc(Nc2ncc(CN3CCN(S(=O)(=O)N(C)C)CC3)cc2-c2nc(C)nc(N)n2)cn1
0.104	COc1ccc(Nc2ncc(CN3CCOCC3)cc2-c2nc(C)nc(N)n2)cn1

The remaining lines, values behind:

SMILES	Ki [µM]
COc1ccc(Nc2ncc(CO)cc2-c2nc(C)nc(N)n2)cn1	0.063
COc1ccc(Nc2ncc(CN3CCC3)cc2-c2nc(C)nc(N)n2)cn1	0.16
COc1ccc(Nc2ncc(CN3CCC(O)CC3)cc2-c2nc(C)nc(N)n2)cn1	0.199
COc1ccc(Nc2ncc(CN3CC[C@@H](CO)C3)cc2-c2nc(C)nc(N)n2)cn1	0.278
Cc1nc(N)nc(-c2cc([C@@H](C)N3CCOCC3)cnc2Nc2cnc(Cl)c(NS(C)(=O)=O)c2)n1	0.007
COc1ncc(Nc2ncc(CN3CCN(C(=O)N(C)C4CC4)CC3)cc2-c2nc(C)nc(N)n2)cc1F	0.045
COc1ccc(Nc2ncc(Cl)cc2-c2nc(C)nc(N)n2)cn1	0.07
COc1ccc(Nc2ncc(CN3CCC(S(C)(=O)=O)CC3)cc2-c2nc(C)nc(N)n2)cn1	0.022
COc1ccc(Nc2ncccc2-c2nc(C)nc(N)n2)cn1	0.107
COc1ccc(Nc2ncccc2-c2ncnc3[nH]cnc23)cn1	7.28
Cc1nc(N)nc(-c2cc(Cl)cnc2Nc2cnc(Cl)c(NS(=O)(=O)N(C)C)c2)n1	0.002
COc1ncc(Nc2ncc(CN3CCN(C(=O)N(C)CC(F)(F)F)CC3)cc2-c2nc(C)nc(N)n2)cc1F	0.024
COc1ccc(Nc2ncc([C@H](O)C(C)(C)C)cc2-c2nc(C)nc3[nH]cnc23)cn1	0.031
COCCNCc1cnc(Nc2ccc(OC)nc2)c(-c2nc(C)nc(N)n2)c1	0.283
COc1ccc(Nc2ncc([C@@H](O)C(C)(C)C)cc2-c2nc(C)nc3[nH]cnc23)cn1	0.012
COc1ccc(Nc2ncc(CN3CCNCC3)cc2-c2nc(C)nc(N)n2)cn1	0.061
COc1ccc(Nc2ncc(CN3CCCCC3)cc2-c2nc(C)nc(N)n2)cn1	0.153
COc1ccc(Nc2ncc(C3=CCOCC3)cc2-c2nc(C)nc(N)n2)cn1	0.005
